Data on twelve compounds can be found in patent publication US20060100257A1, “Inhibitors against the activation of ap-1 and nfat” (priority 2002, published 2006).

For series [1], the system named is AP-1. Nature of the series: Inhibition of AP-1 activation by forced expression of MEKK-1 (pAP-1-Luc reporter, HepG2). As to conditions: HepG2, MEKK-1 expression plasmid, 24 hours; for Inhibitory Ratio of AP-1 Activation(%) Drug Concentration 1 μM: test compound 1 μM; for Inhibitory Ratio of AP-1 Activation(%) Drug Concentration 1 μg/mL: test compound 1 μg/mL. It is filed as cell-based, human. The text has this: Measurement of Inhibition of AP-1 Activation by Forced Expression of MEKK-1
Using a transfection reagent (Effectene; QIAGEN), the human hepatoma cell strain HepG2 was cotransfected with a plasmid (pAP-1-Luc Reporter Plasmid: STRATAGENE), integrated with an oligonucleotide having seven tandem copies of AP-1 binding sequences (TGACTAA) on an upstream region of the firefly luciferase gene (Luc), and the MEKK-1 expression plasmid (pFCMEKK: STRATAGENE) according to the QIAGEN's protocol, and the cells were incubated for 20 to 24 hours. Then, after the cells were incubated in the presence or absence of a test compound for 24 hours, intracellular luciferase activity was measured by using PicaGene LT(TOYO INK MFG Co., Ltd.) and a chemical luminescence measurement apparatus (SPECTRAFluor Plus; TECAN). The inhibitory ratio was measured as a ratio relative to the value of the luciferase activity in the absence of the test compound.

In series [2] the test system is NFAT. Nature of the series: Inhibition of NFAT activation (2) (NFAT Luc reporter, HepG2). It is filed as cell-based, human. As to conditions: HepG2, TPA (200 nM) and ionomycin (2 μM); for Inhibition Ratio of NFAT Activation(%) Drug Concentration 1 μM: test compound 1 μM; for Inhibition Ratio of NFAT Activation(%) Drug Concentration 1 μg/mL: test compound 1 μg/mL. How it is done: Measurement of Inhibition of NFAT Activation (2)
Using a transfection reagent (Effectene; QIAGEN), the human hepatoma cell strain HepG2 was transfected with a plasmid (NFAT Luc) which was integrated with an NFAT binding sequence on a upstream region of the firefly luciferase gene (Luc) according to the QIAGEN's protocol, and the cells were incubated for 20 to 24 hours.
After incubation of the cells in the presence or absence of a test compound for 4 hours, TPA (200 nM) and ionomycin (2 μM) were added and the cells were incubated for 20 to 24 hours.
Then, intracellular luciferase activity was measured by using PicaGene LT(TOYO INK MFG Co., Ltd.) and a chemical luminescence measurement apparatus (SPECTRAFluor Plus; TECAN).
The inhibitory ratio was measured as a ratio relative to the value of the luciferase activity in the absence of the test compound.

Series [3] has as its system AP-1. Nature of the series: Inhibition of AP-1 activation by TNF α stimulation (pAP-1-Luc reporter, HeLa). As to conditions: TNF-α (40 ng/ml), 4 hours; for Inhibitory Ratio of AP-1 Activation(%) Drug Concentration 10 μg/mL: test compound 10 μg/mL; for Inhibitory Ratio of AP-1 Activation(%) Drug Concentration 1 μg/mL: test compound 1 μg/mL. It is filed as cell-based, human. As to the method:
Measurement of Inhibition of AP-1 Activation by TNF α Stimulation
Using a transfection reagent (Effectene; QIAGEN), the human uterine cancer cell strain HeLa was transfected with a plasmid (pAP-1-Luc Reporter Plasmid: STRATAGENE) according to the QIAGEN's protocol, which was integrated with an oligonucleotide having seven tandem copies of AP-1 binding sequences (TGACTAA) on a upstream region of firefly luciferase gene (Luc), and the cells were incubated for 6 to 24 hours. Then, the cells were added with TNF-α (40 ng/ml) in the presence or absence of a test compound and incubated for 4 hours, and intracellular luciferase activity was measured by using PicaGene LT(TOYO INK MFG Co., Ltd.) and chemical luminescence measurement apparatus(SPECTRAFluor Plus; TECAN). The inhibitory ratio was obtained as a ratio relative to the value of the luciferase activity in the absence of the test compound.

Series [4] relates to NFAT. Description: Inhibition of NFAT activation (1) (NFAT-LacZ reporter, Jurkat cell). It is filed as cell-based. As to conditions: A23187 and PMA, 4 hours. How it is done:
Measurement of Inhibition of NFAT Activation (1)
A Jurkat cell transfected with a reporter plasmid (NFAT-LacZ), which was integrated with the NFAT binding sequence on a upstream region of the β-galactosidase gene (LacZ) according to the method described in the “Proceedings of The National Academy of Sciences of The United States of America” 1991, Vol. 88, No. 9, p. 3972-3976, was incubated for 4 hours in the Modified RPMI 1640 medium in the presence of A23187 as a calcium ionophore and PMA (Phorbol 12-myristate 13-acetate), and in the presence or absence of a test compound. Then, intracellular β-galactosidase activity was measured by the method described in the “Proceedings of The National Academy of Sciences of The United States of America” 1991, Vol. 88, No. 9, p. 3972-3976. The inhibitory ratio was obtained as a ratio relative to the value of the β-galactosidase activity in the absence of the test compound.

Each structure is given as a SMILES string. Where only a bound is given, the exact number is not on record here.

As to `CC(C)(C)c1ccc(O)c(C(=O)Nc2cc(C(F)(F)F)cc(C(F)(F)F)c2)c1` [Compound No. 56, N-[3,5-Bis(trifluoromethyl)phenyl]-5-[(1,1-dimethyl)ethyl]-2-hydroxybenzamide], in the series with AP-1 [1], the “Inhibitory Ratio of AP-1 Activation(%) Drug Concentration 1 μM” value amounted to 82.6% and the “Inhibitory Ratio of AP-1 Activation(%) Drug Concentration 1 μg/mL” value was determined as 96.3%. Also, in the series with NFAT [2], the “Inhibition Ratio of NFAT Activation(%) Drug Concentration 1 μM” value is on record as 88.9% and the “Inhibition Ratio of NFAT Activation(%) Drug Concentration 1 μg/mL” value worked out at 99.7%.
As to `O=C(Nc1cc(C(F)(F)F)cc(C(F)(F)F)c1)c1cc(C#Cc2ccccc2)ccc1O` [Compound No. 65, N-[3,5-bis(trifluoromethyl)phenyl]-2-hydroxy-5-(phenylethynyl)benzamide], the “Inhibitory Ratio of AP-1 Activation(%) Drug Concentration 10 μg/mL” value in the series on AP-1 [3] was 44.1%.
Consider `CC(C)(C)c1nc(NC(=O)c2cc(Br)ccc2O)sc1N1CCN(c2ccccc2)CC1` [compound 201, 5-Bromo-N-{4-[(1,1-dimethyl)ethyl]-5-(4-phenylpiperazin-1-yl)thiazol-2-yl}-2-hydroxybenzamide], for which the “Inhibitory Ratio of AP-1 Activation(%) Drug Concentration 1 μg/mL” value in the series with AP-1 [1] is 79.1%. In addition, in the series on NFAT [2], the “Inhibition Ratio of NFAT Activation(%) Drug Concentration 1 μg/mL” value is reported as above 99.9%.
For the compound `O=C(Nc1cc(C(F)(F)F)cc(C(F)(F)F)c1)c1cc(Cl)ccc1O` [Compound No. 50, N-[3,5-Bis(trifluoromethyl)phenyl]-5-chloro-2-hydroxybenzamide], in the series with AP-1 [1], the “Inhibitory Ratio of AP-1 Activation(%) Drug Concentration 1 μM” value is recorded as 90.7% and the “Inhibitory Ratio of AP-1 Activation(%) Drug Concentration 1 μg/mL” value stood at 99.4%. For the same compound, in the series on NFAT [2], the “Inhibition Ratio of NFAT Activation(%) Drug Concentration 1 μM” value is 94.8% and the “Inhibition Ratio of NFAT Activation(%) Drug Concentration 1 μg/mL” value was 99.5%. In addition, the “Inhibitory Ratio of NFAT Activation(%) Drug Concentration 1 μM” value in the series on NFAT [4] (test compound 1 μM) was determined as 70%. Further, in the series with NFAT [4] (test compound 10 μM), the “Inhibitory Ratio of NFAT Activation(%) Drug Concentration 10 μM” value is on record as 100%. Moreover, in the series with AP-1 [3], the “Inhibitory Ratio of AP-1 Activation(%) Drug Concentration 1 μg/mL” value was 42.4% and the “Inhibitory Ratio of AP-1 Activation(%) Drug Concentration 10 μg/mL” value amounted to 89.1%.
`CC(C)(C)c1nc(NC(=O)c2cc(Br)ccc2O)sc1N1CCOCC1` [compound 199, 5-Bromo-N-{4-[(1,1-dimethyl)ethyl]-5-morpholinothiazol-2-yl}-2-hydroxybenzamide]: the “Inhibitory Ratio of AP-1 Activation(%) Drug Concentration 1 μg/mL” value in the series with AP-1 [1] is given as 70.6%. Further, the “Inhibition Ratio of NFAT Activation(%) Drug Concentration 1 μg/mL” value in the series on NFAT [2] is above 99.9%.
Take `CCOC(=O)c1sc(NC(=O)c2cc(Br)ccc2O)nc1-c1ccccc1` [compound 209, 2-(5-bromo-2-hydroxybenzoyl)amino-4-phenylthiazole-5-carboxylic acid ethyl ester]: in the series with AP-1 [3], the “Inhibitory Ratio of AP-1 Activation(%) Drug Concentration 1 μg/mL” value was found to be 21.7% and the “Inhibitory Ratio of AP-1 Activation(%) Drug Concentration 10 μg/mL” value came out at 55.3%.
For `O=C(Nc1cc(C(F)(F)F)cc(C(F)(F)F)c1)c1cc(-c2ccccc2)ccc1O` [Compound No. 67], the “Inhibitory Ratio of AP-1 Activation(%) Drug Concentration 1 μg/mL” value in the series with AP-1 [1] was determined as 94.8%; in the series with AP-1 [3] it was 18.1%. For the same compound, the “Inhibition Ratio of NFAT Activation(%) Drug Concentration 1 μg/mL” value with NFAT [2] is reported as above 99.9%. The “Inhibitory Ratio of AP-1 Activation(%) Drug Concentration 10 μg/mL” value in the series with AP-1 [3] is 60.9%.
As for `CC(C)(C)C(=O)c1sc(NC(=O)c2cc(Cl)ccc2O)nc1C(C)(C)C` [compound 195, 5-Chloro-N-{4-[(1,1-dimethyl)ethyl]-5-[(2,2-dimethyl)propionyl]thiazol-2-yl}-2-hydroxybenzamide], in the series with AP-1 [1], the “Inhibitory Ratio of AP-1 Activation(%) Drug Concentration 1 μM” value worked out at 91.2% and the “Inhibitory Ratio of AP-1 Activation(%) Drug Concentration 1 μg/mL” value was determined as 95.5%. For the same compound, in the series on NFAT [2], the “Inhibition Ratio of NFAT Activation(%) Drug Concentration 1 μM” value is listed as 96.8% and the “Inhibition Ratio of NFAT Activation(%) Drug Concentration 1 μg/mL” value is listed as 86.7%.
Consider `O=C(Nc1cc(C(F)(F)F)cc(C(F)(F)F)c1)c1cc(I)ccc1O` [Compound No. 52, N-[3,5-bis(trifluoromethyl)phenyl]-2-hydroxy-5-iodobenzamide], for which, in the series on AP-1 [3], the “Inhibitory Ratio of AP-1 Activation(%) Drug Concentration 1 μg/mL” value turned out to be 25.4% and the “Inhibitory Ratio of AP-1 Activation(%) Drug Concentration 10 μg/mL” value is listed as 82.4%.
`CC(=O)Oc1ccccc1C(=O)Nc1cc(Cl)cc(Cl)c1` [compound 172, 2-acetoxy-N-(3,5-dichlorophenyl)benzamide]: the melting point (in general, the temperature, or range, at which the solid turns liquid) is 218 to 219 °C.
In the case of `O=C(Nc1cc(C(F)(F)F)cc(C(F)(F)F)c1)c1cc(-n2cccc2)ccc1O` [Compound No. 71], in the series with AP-1 [1], the “Inhibitory Ratio of AP-1 Activation(%) Drug Concentration 1 μg/mL” value is on record as 98.0%. Further, in the series on NFAT [2], the “Inhibition Ratio of NFAT Activation(%) Drug Concentration 1 μg/mL” value was above 99.9%.
For `CCOC(=O)c1sc(NC(=O)c2cc(-c3cccs3)ccc2O)nc1-c1ccccc1` [compound 223, 2-[2-Hydroxy-5-(2-thienyl)benzoyl]amino-4-phenylthiazole-5-carboxylic acid ethyl ester], in the series with AP-1 [3], the “Inhibitory Ratio of AP-1 Activation(%) Drug Concentration 10 μg/mL” value came to 7.0%.
